The values that follow come from PubChem BioAssay (NCI).

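Assay format: 96-well plates, 48-hour exposure. At the GI50, growth is halved. TGI is the concentration that stops growth completely.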 Where a SMILES comes first, the peptide text is derived from it. Bridges are numbered along the chain shown (N, C = ends). [ ]: non-standard residue; d: D form. The star is where a group is joined. Cbz = O=C(OCc1ccccc1)*; Aib = CC(C)(N)C(=O)O; OBn = c1ccc(CO*)cc1; βAla = NCCC(=O)O

Some test systems named below: CAKI-1 renal; NCI-H23 lung; EKVX NSCLC; NCI-H522 lung; LOX IMVI melanoma; RXF 393 renal; OVCAR-5 ovarian; MCF7 breast; K-562 leukemia; RPMI-8226 leukemia; UACC-62 melanoma; U251 CNS; SF-295 CNS; UACC-257 melanoma; HCT-15 colon; MOLT-4 leukemia; 786-0 renal; NCI-H226 lung.
Holding throughout (experiment): NCI tumour cell line growth inhibition, 48 h

Take `N#Cc1nc(COCCOCc2ccccc2)oc1N`: the TGI with CAKI-1 renal, with NCI-H23 lung, with EKVX NSCLC, with NCI-H522 lung, in the assay on LOX IMVI melanoma and in the assay with RXF 393 renal was greater than 100 µM in each case. In addition, the TGI in the assay with OVCAR-5 ovarian, with MCF7 breast, in the assay on K-562 leukemia, with RPMI-8226 leukemia, in the assay on UACC-62 melanoma and in the assay with U251 CNS was greater than 100 µM in each case. Further, the TGI with SF-295 CNS, with UACC-257 melanoma, with HCT-15 colon, in the assay on MOLT-4 leukemia, with 786-0 renal and in the assay on NCI-H226 lung was greater than 100 µM in each case.
Consider `O=P(O)(O)CN1CCN(CP(=O)(O)O)CCN(CP(=O)(O)O)CCN(CP(=O)(O)O)CC1`, for which the TGI with CAKI-1 renal, in the assay with NCI-H23 lung, with EKVX NSCLC, in the assay with NCI-H522 lung, in the assay on LOX IMVI melanoma and in the assay with RXF 393 renal was greater than 100 µM in each case. The TGI with OVCAR-5 ovarian is greater than 100 µM; in the assay with MCF7 breast it was greater than 100 µM; with K-562 leukemia, greater than 100 µM; in the assay on RPMI-8226 leukemia, 93.5 µM; with UACC-62 melanoma, greater than 100 µM; in the assay on U251 CNS, greater than 100 µM. Moreover, the TGI was greater than 100 µM in the assay on SF-295 CNS; greater than 100 µM in the assay on UACC-257 melanoma; 77.7 µM in the assay with HCT-15 colon; greater than 100 µM with MOLT-4 leukemia; greater than 100 µM in the assay with 786-0 renal; greater than 100 µM in the assay on NCI-H226 lung.
As to `CC(=O)O[C@@H]1C=C(C)[C@H](CBr)O[C@@]2(C)CC[C@H](Br)C(C)(C)[C@H]12`, the TGI in the assay on CAKI-1 renal is greater than 100 µM; with NCI-H23 lung it was greater than 100 µM; in the assay with EKVX NSCLC, greater than 100 µM; with NCI-H522 lung, 90.2 µM; with LOX IMVI melanoma, greater than 100 µM; in the assay on RXF 393 renal, greater than 100 µM. For the same compound, the TGI in the assay on OVCAR-5 ovarian, with MCF7 breast, in the assay on K-562 leukemia, in the assay on RPMI-8226 leukemia, with UACC-62 melanoma and in the assay on U251 CNS was greater than 100 µM each time. Further, the TGI with SF-295 CNS, in the assay on UACC-257 melanoma, in the assay with HCT-15 colon, in the assay with MOLT-4 leukemia, in the assay on 786-0 renal and in the assay with NCI-H226 lung was greater than 100 µM each time.
In the case of `COc1cc(C2c3cc4c(cc3[C@H](OCCN(C)C)[C@@H]3COC(=O)C23)OCO4)cc(OC)c1O` (stereo not given in full), the TGI in the assay with CAKI-1 renal amounted to 1.07 µM; in the assay with NCI-H23 lung, 1.3 µM; with EKVX NSCLC, 1.5 µM; with NCI-H522 lung it was 2.35 µM; in the assay on LOX IMVI melanoma, 0.803 µM; in the assay with RXF 393 renal, 1.55 µM. Also, the TGI is 3.82 µM in the assay with OVCAR-5 ovarian; greater than 100 µM in the assay on MCF7 breast; 15.9 µM in the assay with K-562 leukemia; greater than 100 µM with RPMI-8226 leukemia; 0.496 µM in the assay on UACC-62 melanoma; 0.898 µM in the assay with U251 CNS. The TGI with SF-295 CNS is 0.583 µM; in the assay on UACC-257 melanoma, 11.4 µM; in the assay with HCT-15 colon, greater than 100 µM; in the assay on MOLT-4 leukemia, 0.684 µM; in the assay on 786-0 renal, 0.439 µM; in the assay on NCI-H226 lung, 0.301 µM. Also, the GI50 in the assay on U251 CNS was 0.0409 µM; in the assay on HCT-15 colon it was 0.344 µM.
On to `CCOC(=O)C(Cl)(NC(=O)c1ccc(F)cc1)C(F)(F)F` (stereo not given), for which the TGI in the assay with CAKI-1 renal, in the assay with NCI-H23 lung, in the assay on EKVX NSCLC, in the assay with NCI-H522 lung, in the assay on LOX IMVI melanoma and in the assay on RXF 393 renal was greater than 100 µM in each case. The TGI in the assay with OVCAR-5 ovarian, with MCF7 breast, in the assay with K-562 leukemia, in the assay on RPMI-8226 leukemia, with U251 CNS and with SF-295 CNS was greater than 100 µM throughout. The TGI in the assay on UACC-257 melanoma, with HCT-15 colon, in the assay on MOLT-4 leukemia, in the assay on 786-0 renal and in the assay with NCI-H226 lung was greater than 100 µM in each case.
`NC(N)=N/N=C/c1c(Cl)nc2sccn12`: the TGI is greater than 100 µM in the assay with CAKI-1 renal; greater than 100 µM in the assay on NCI-H23 lung; greater than 100 µM with EKVX NSCLC; 84 µM with NCI-H522 lung; 39.6 µM in the assay on LOX IMVI melanoma; 65.1 µM in the assay on RXF 393 renal. Moreover, the TGI in the assay with OVCAR-5 ovarian was 80.9 µM; in the assay on MCF7 breast, 73.6 µM; in the assay on K-562 leukemia, 87.4 µM; with RPMI-8226 leukemia, 53.1 µM; in the assay on UACC-62 melanoma, greater than 100 µM; in the assay with U251 CNS, greater than 100 µM. Moreover, the TGI with SF-295 CNS was 44.1 µM; in the assay with UACC-257 melanoma, 49 µM; in the assay on MOLT-4 leukemia, greater than 100 µM; in the assay with 786-0 renal, 32.7 µM; with NCI-H226 lung, 66.9 µM.
In the case of `S=C(/N=c1/sc(Nc2ccccc2)nc2sc3c(c12)CCCC3)Nc1ccccc1`, the TGI in the assay on CAKI-1 renal, with NCI-H23 lung, in the assay on EKVX NSCLC, in the assay with NCI-H522 lung, with LOX IMVI melanoma and in the assay on RXF 393 renal was greater than 62.5 µM throughout. Also, the TGI in the assay with OVCAR-5 ovarian, with MCF7 breast, in the assay with K-562 leukemia, with RPMI-8226 leukemia, with UACC-62 melanoma and with U251 CNS was greater than 62.5 µM in each case. The TGI in the assay with UACC-257 melanoma, in the assay on HCT-15 colon, in the assay on MOLT-4 leukemia, in the assay on 786-0 renal and in the assay on NCI-H226 lung was greater than 62.5 µM each time.
For the compound `CCCCCCCCCCCCCCCCCc1cccc(OCOCCOC)c1CO`, the TGI in the assay with CAKI-1 renal, in the assay with NCI-H23 lung, with EKVX NSCLC, in the assay with NCI-H522 lung, in the assay on RXF 393 renal and in the assay on OVCAR-5 ovarian was greater than 100 µM throughout. The TGI in the assay with MCF7 breast, in the assay on K-562 leukemia, in the assay on RPMI-8226 leukemia, in the assay with UACC-62 melanoma, in the assay on U251 CNS and in the assay on SF-295 CNS was greater than 100 µM throughout. Moreover, the TGI with UACC-257 melanoma, in the assay with HCT-15 colon, with MOLT-4 leukemia, in the assay with 786-0 renal and in the assay with NCI-H226 lung was greater than 100 µM each time.
Consider `COC12C=CC(CC1)C(C)(C)C2=O` (stereo not given), for which the TGI in the assay on CAKI-1 renal, in the assay on NCI-H23 lung, with EKVX NSCLC, in the assay on NCI-H522 lung, in the assay with RXF 393 renal and in the assay on OVCAR-5 ovarian was greater than 100 µM each time. Further, the TGI with MCF7 breast, in the assay on K-562 leukemia, with RPMI-8226 leukemia, in the assay on UACC-62 melanoma, in the assay on U251 CNS and in the assay with SF-295 CNS was greater than 100 µM in each case. The TGI with UACC-257 melanoma, with HCT-15 colon, in the assay on MOLT-4 leukemia, in the assay with 786-0 renal and in the assay on NCI-H226 lung was greater than 100 µM in each case.
In the case of `Nc1nc(Cl)cc(NCC2(CO)CC(OCc3ccccc3)C2)n1` (stereo not given), the TGI with CAKI-1 renal, in the assay on NCI-H23 lung, with EKVX NSCLC, with NCI-H522 lung, with LOX IMVI melanoma and in the assay with RXF 393 renal was greater than 100 µM in each case. The TGI in the assay on OVCAR-5 ovarian, in the assay on MCF7 breast, with K-562 leukemia, in the assay with RPMI-8226 leukemia, in the assay on UACC-62 melanoma and in the assay on U251 CNS was greater than 100 µM in each case. Moreover, the TGI with SF-295 CNS, in the assay with UACC-257 melanoma, with HCT-15 colon, in the assay with 786-0 renal and in the assay with NCI-H226 lung was greater than 100 µM each time.
Take `CO/N=C(\C(=O)Nc1cncs1)c1csc(NC(c2ccccc2)(c2ccccc2)c2ccccc2)n1`: the TGI in the assay on CAKI-1 renal, with NCI-H23 lung, in the assay on EKVX NSCLC, with NCI-H522 lung, with LOX IMVI melanoma and with RXF 393 renal was greater than 10 µM throughout. The TGI in the assay on OVCAR-5 ovarian, in the assay with MCF7 breast, in the assay on K-562 leukemia, with RPMI-8226 leukemia, with U251 CNS and in the assay on SF-295 CNS was greater than 10 µM in each case. Besides, the TGI in the assay with UACC-257 melanoma, in the assay with HCT-15 colon, with MOLT-4 leukemia, with 786-0 renal and in the assay on NCI-H226 lung was greater than 10 µM throughout.
Turning to `CC1(C)NC(=O)C(NC(=O)C(CC(=O)OCc2ccccc2)NC(=O)OCc2ccccc2)CCCCNC(=O)CCNC1=O` (stereo not given) (Cbz-D(OBn)K[Aib][βAla]; lactam 2-C; configuration not given here), the TGI in the assay with CAKI-1 renal, in the assay on NCI-H23 lung, in the assay with EKVX NSCLC, in the assay with NCI-H522 lung, in the assay with LOX IMVI melanoma and in the assay with RXF 393 renal was greater than 100 µM each time. In addition, the TGI in the assay on OVCAR-5 ovarian, in the assay with MCF7 breast, in the assay on K-562 leukemia, in the assay on RPMI-8226 leukemia, in the assay on UACC-62 melanoma and in the assay on U251 CNS was greater than 100 µM throughout. Also, the TGI in the assay on SF-295 CNS, in the assay on HCT-15 colon, in the assay with MOLT-4 leukemia, with 786-0 renal and in the assay with NCI-H226 lung was greater than 100 µM throughout.
